Patent US12577341B2, “Copolymer derived from substituted benzopinacol and use of the same as polymerization initiator” (BASF COATINGS GMBH, priority 2020, dated 2026)

Assays:
[1] = Dissolution of the initiator in the monomer solution (appearance of the resulted mixture); type: physicochemical
Description: A monomer solution was prepared by mixing 90 g of trimethylolpropane triacrylate (TMPTA) and 2 g of butyl glycol under stirring. 4 g of the copolymeric initiator system was added into the monomer solution and stirred under room temperature for 1 hour.
A monomer solution was prepared by mixing 90 g of TMPTA, 2 g of butyl glycol, 0.24 g of chloroform and 1.76 g solvent naphtha 160/180 under stirring. 1 g of benzopinacol fine powder was added into the monomer solution and stirred under room temperature for 1 hour.
A monomer solution was prepared by mixing 90 g of TMPTA and 10 g of butyl glycol under stirring. 1 g of fine benzopinacol fine powder was added into the monomer solution and stirred under room temperature for 1 hour.
A monomer solution was prepared by mixing 90 g of TMPTA and 10 g of butyl glycol by stirring. 1 g of the compound of formula (I) was added into the monomer solution and stirred under room temperature for 1 hour.

[2] = cited from earlier work
[3] = 1 g in 90 g TMPTA and 10 g butyl glycol, stirred at room temperature for 1 hour

Row | SMILES | Appearance of resulted mixture [1, 3] | Appearance of resulted mixture ([1]; 1 g fine powder in 90 g TMPTA, 2 g butyl glycol, 0.24 g chloroform and 1.76 g solvent naphtha 160/180, stirred at room temperature for 1 hour) | Solubility in common organic solvents [2]
1 | C=CCOC(=O)c1ccc(C(O)(c2ccccc2)C(O)(c2ccccc2)c2ccc(C(=O)OCC=C)cc2)cc1 (stereo not shown) [compound of formula (I), allyloxycarbonyl substituted benzopinacol of formula (I)] | transparent liquid with suspended fine particles |  | 
2 | OC(c1ccccc1)(c1ccccc1)C(O)(c1ccccc1)c1ccccc1 [benzopinacol, 1,1,2,2-tetraphenyl-1,2-ethanediol] | transparent liquid with suspended fine particles | transparent liquid with suspended fine particles | very poor solubility
